What was measured:
Experiment in all cases: Kinase profiling in a biochemical assay panel (mobility shift assays and ELISA), %-inhibition at 1 μM; selectivity entropy
[1] = biological target: panel of more than 300 wild-type and mutant kinases (313 kinase panel) (Homo sapiens, UniProt P22455, V550E); details: kinase FGFR4(V550E); compound at 1 μM
[2] = biological target: panel of more than 300 wild-type and mutant kinases (313 kinase panel) (Homo sapiens, UniProt P06213)
[3] = biological target: T1, panel of more than 300 wild-type and mutant kinases (313 kinase panel) (Homo sapiens, UniProt P42681)
T1 sequence (P42681 1-527): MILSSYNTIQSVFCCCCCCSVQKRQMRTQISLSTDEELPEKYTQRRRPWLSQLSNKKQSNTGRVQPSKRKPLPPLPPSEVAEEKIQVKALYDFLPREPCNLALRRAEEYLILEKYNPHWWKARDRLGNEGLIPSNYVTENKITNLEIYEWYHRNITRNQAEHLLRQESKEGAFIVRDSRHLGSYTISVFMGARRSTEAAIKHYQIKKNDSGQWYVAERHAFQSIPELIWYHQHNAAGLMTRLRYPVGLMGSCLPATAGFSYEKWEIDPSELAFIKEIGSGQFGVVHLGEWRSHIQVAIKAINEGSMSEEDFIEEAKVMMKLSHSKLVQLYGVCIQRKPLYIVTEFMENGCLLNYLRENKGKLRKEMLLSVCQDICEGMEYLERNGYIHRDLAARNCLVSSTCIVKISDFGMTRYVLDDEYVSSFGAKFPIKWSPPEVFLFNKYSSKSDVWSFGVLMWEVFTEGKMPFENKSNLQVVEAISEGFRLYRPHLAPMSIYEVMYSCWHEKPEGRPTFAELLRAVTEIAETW

[4] = biological target: panel of more than 300 wild-type and mutant kinases (313 kinase panel) (Homo sapiens, UniProt P43405)
[5] = biological target: panel of more than 300 wild-type and mutant kinases (313 kinase panel) (Homo sapiens, UniProt Q16539)
[6] = biological target: panel of more than 300 wild-type and mutant kinases (313 kinase panel) (Homo sapiens, UniProt Q13131)
Sequence of panel of more than 300 wild-type and mutant kinases (313 kinase panel) (Homo sapiens, UniProt Q13131) (Q13131 whole entry, change not shown): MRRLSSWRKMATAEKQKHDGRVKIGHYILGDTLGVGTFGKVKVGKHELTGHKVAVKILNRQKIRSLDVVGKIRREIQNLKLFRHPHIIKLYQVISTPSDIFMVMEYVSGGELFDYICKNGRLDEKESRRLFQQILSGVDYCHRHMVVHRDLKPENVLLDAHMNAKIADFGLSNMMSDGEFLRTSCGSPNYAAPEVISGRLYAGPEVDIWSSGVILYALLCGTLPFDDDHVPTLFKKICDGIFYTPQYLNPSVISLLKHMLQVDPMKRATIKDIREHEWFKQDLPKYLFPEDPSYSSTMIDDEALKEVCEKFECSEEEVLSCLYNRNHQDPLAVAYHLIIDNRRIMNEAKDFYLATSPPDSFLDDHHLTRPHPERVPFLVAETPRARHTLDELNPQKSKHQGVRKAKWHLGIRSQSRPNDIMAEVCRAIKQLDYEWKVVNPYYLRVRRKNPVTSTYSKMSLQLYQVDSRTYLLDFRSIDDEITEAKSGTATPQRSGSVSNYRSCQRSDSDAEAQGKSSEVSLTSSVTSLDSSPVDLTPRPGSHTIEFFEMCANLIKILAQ

[7] = biological target: panel of more than 300 wild-type and mutant kinases (313 kinase panel) (Homo sapiens, UniProt P08631)
[8] = biological target: T2, panel of more than 300 wild-type and mutant kinases (313 kinase panel) (Homo sapiens, UniProt Q9NWZ3)
T2 sequence (Q9NWZ3 1-460): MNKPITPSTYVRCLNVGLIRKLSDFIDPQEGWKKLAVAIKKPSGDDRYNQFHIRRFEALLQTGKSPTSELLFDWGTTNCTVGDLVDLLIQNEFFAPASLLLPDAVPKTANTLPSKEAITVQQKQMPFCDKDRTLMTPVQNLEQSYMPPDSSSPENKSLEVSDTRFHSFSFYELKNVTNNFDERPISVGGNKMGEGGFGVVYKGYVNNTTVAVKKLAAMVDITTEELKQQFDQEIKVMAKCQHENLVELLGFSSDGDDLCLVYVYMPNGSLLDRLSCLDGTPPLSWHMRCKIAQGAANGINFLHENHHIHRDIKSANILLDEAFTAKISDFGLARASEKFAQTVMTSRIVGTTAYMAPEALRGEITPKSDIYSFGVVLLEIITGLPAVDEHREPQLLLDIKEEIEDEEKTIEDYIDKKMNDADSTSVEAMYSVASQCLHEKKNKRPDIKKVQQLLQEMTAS

[9] = biological target: panel of more than 300 wild-type and mutant kinases (313 kinase panel) (Homo sapiens, UniProt Q86V86)
[10] = biological target: panel of more than 300 wild-type and mutant kinases (313 kinase panel) (Homo sapiens, UniProt Q9H4A3)
Sequence of panel of more than 300 wild-type and mutant kinases (313 kinase panel) (Homo sapiens, UniProt Q9H4A3) (Q9H4A3 whole entry, change not shown): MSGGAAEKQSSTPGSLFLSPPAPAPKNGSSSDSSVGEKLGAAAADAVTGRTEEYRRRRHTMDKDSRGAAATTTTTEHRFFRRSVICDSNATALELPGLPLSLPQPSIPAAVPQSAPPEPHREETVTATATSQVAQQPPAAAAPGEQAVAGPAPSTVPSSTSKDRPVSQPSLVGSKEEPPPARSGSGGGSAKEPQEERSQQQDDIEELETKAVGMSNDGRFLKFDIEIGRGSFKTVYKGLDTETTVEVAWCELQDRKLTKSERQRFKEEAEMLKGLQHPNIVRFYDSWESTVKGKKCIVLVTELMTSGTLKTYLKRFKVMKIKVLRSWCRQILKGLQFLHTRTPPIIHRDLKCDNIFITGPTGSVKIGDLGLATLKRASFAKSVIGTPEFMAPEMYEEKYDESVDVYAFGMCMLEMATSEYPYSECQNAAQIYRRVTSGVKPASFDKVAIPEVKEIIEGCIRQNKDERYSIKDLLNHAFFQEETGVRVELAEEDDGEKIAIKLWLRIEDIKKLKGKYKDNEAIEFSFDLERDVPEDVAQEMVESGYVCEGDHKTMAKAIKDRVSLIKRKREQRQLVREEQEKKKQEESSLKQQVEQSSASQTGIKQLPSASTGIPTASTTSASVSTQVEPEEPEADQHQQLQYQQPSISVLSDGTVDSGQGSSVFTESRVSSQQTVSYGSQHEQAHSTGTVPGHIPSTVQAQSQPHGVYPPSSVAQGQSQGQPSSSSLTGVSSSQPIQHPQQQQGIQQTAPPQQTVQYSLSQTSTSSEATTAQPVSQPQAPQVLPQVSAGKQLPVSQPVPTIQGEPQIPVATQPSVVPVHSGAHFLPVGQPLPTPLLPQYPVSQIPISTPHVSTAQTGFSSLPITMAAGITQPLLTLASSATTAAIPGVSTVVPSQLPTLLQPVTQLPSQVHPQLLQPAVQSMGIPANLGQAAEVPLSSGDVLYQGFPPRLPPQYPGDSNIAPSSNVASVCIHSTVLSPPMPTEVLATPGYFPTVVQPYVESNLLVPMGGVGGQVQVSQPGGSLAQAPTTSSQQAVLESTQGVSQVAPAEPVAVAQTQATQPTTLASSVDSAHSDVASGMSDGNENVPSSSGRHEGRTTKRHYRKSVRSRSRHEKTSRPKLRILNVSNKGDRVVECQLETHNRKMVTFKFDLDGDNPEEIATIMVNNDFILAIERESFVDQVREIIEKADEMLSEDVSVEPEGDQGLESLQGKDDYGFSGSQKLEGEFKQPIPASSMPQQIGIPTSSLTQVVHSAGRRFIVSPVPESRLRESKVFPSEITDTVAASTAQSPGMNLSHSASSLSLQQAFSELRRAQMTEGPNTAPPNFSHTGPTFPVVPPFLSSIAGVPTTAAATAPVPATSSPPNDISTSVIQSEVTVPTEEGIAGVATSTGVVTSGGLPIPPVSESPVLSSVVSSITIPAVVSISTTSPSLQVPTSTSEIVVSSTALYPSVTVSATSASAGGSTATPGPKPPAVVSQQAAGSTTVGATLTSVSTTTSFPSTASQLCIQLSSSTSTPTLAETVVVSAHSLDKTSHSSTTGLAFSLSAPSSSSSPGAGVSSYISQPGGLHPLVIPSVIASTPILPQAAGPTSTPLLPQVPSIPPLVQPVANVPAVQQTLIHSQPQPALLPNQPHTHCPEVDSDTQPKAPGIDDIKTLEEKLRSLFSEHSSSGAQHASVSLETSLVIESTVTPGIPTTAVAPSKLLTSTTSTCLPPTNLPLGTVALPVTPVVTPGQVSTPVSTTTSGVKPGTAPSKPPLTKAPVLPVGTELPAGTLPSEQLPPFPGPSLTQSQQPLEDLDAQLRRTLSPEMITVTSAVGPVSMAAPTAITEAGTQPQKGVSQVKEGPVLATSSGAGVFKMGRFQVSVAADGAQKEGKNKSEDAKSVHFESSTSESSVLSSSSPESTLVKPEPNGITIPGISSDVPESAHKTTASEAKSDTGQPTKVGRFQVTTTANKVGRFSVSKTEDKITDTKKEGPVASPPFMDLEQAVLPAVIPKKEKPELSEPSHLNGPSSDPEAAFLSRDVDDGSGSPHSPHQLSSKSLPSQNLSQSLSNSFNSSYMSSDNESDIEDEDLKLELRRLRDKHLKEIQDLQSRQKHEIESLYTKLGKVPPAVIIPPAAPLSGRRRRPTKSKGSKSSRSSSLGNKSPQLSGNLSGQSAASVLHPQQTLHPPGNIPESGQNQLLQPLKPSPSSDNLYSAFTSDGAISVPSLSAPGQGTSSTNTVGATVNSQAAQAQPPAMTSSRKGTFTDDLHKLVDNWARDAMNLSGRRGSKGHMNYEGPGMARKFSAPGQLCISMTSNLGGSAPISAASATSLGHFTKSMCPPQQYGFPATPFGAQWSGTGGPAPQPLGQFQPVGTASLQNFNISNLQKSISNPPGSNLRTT

[11] = biological target: panel of more than 300 wild-type and mutant kinases (313 kinase panel) (Homo sapiens, UniProt P49761)
Sequence of panel of more than 300 wild-type and mutant kinases (313 kinase panel) (Homo sapiens, UniProt P49761) (P49761 whole entry, change not shown): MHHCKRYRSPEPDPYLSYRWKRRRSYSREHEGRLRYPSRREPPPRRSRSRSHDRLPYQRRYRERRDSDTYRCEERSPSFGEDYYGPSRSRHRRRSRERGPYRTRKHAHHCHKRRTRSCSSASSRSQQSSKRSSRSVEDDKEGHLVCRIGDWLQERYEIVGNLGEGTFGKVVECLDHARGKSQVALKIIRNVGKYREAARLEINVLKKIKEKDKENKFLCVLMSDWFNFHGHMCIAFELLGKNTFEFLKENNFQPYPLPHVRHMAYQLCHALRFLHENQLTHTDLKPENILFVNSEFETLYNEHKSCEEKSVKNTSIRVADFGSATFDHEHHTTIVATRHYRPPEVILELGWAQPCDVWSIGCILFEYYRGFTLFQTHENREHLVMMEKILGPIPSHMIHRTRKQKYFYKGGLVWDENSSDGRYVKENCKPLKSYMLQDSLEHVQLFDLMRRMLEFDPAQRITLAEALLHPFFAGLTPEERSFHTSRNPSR

[12] = kinase AMPKα1/β1/γ1, 1 μM compound

Sequence of panel of more than 300 wild-type and mutant kinases (313 kinase panel) (Homo sapiens, UniProt P06213) (P06213 28-1382, change not shown): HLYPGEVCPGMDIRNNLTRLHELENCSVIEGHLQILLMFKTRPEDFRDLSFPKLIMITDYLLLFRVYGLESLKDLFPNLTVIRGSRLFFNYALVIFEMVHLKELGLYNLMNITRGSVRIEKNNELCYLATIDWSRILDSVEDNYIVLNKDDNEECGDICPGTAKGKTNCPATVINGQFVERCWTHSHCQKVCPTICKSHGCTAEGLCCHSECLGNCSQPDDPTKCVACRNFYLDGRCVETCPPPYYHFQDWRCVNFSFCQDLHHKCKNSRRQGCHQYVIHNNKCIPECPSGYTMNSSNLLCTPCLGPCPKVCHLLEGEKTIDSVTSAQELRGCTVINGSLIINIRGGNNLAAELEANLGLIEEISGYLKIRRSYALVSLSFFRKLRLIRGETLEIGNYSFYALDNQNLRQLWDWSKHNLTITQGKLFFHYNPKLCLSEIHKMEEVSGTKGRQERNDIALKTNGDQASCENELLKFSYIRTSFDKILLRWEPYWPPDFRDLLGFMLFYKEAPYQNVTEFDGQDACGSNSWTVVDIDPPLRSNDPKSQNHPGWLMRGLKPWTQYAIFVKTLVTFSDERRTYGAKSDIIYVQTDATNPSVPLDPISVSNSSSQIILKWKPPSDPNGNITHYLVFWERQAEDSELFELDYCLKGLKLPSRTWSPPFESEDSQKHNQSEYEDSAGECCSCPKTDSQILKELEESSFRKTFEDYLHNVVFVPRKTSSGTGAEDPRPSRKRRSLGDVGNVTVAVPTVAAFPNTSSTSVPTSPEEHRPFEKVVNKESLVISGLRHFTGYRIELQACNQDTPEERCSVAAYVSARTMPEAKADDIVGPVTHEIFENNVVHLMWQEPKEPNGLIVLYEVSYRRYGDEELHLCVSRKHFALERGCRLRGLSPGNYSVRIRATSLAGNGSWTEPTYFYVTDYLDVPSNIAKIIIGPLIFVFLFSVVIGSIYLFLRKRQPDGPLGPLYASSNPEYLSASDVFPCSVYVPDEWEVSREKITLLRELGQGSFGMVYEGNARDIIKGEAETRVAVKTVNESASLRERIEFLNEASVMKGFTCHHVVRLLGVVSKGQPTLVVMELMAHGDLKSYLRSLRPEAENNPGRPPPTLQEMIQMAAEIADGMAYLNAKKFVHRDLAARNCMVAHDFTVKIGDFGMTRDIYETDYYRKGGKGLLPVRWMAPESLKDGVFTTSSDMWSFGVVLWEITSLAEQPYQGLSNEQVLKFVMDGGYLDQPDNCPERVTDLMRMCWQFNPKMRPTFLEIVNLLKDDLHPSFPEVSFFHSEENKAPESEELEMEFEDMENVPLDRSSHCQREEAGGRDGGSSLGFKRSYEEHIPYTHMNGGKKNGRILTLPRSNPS

Structure (SMILES) | %-inhibition of FGFR4(V550E) [1] [%] | %-inhibition of INSR ([2]; kinase INSR, compound at 1 μM) [%] | %-inhibition of TXK ([3]; kinase TXK, compound at 1 μM) [%] | %-inhibition of SYK ([4]; kinase SYK, 1 μM) [%] | %-inhibition of p38α ([5]; kinase p38α, 1 μM) [%] | %-inhibition, AMPKα1/β1/γ1 [6, 12] [%] | %-inhibition of HCK ([7]; kinase HCK, compound at 1 μM) [%] | %-inhibition of IRAK4 ([8]; kinase IRAK4, compound at 1 μM) [%] | %-inhibition of PIM3 ([9]; kinase PIM3, 1 μM) [%] | %-inhibition of WNK1 ([10]; kinase WNK1, compound at 1 μM) [%] | %-inhibition of CLK3 ([11]; kinase CLK3, compound at 1 μM) [%] | also measured
COc1cc(Nc2c(C#N)cnc3cc(OCCCN4CCN(C)CC4)c(OC)cc23)c(Cl)cc1Cl [bosutinib] | -3.46 | 65 | 72 | 100 | 9 | 9 | 89 | 27 |  |  |  | 
COc1cc2nccc(Oc3ccc(NC(=O)C4(C(=O)Nc5ccc(F)cc5)CC4)cc3)c2cc1OC [cabozantinib] | -4 | 35 | 18 | -3 | 37 | -1 | 95 | -4 | 0.402 | -1.85 | -1.24 | 
C[C@@H](Oc1cc(-c2cnn(C3CCNCC3)c2)cnc1N)c1c(Cl)ccc(F)c1Cl [crizotinib] | -0.358 |  | 39 |  | -2.27 | 16 | 26 | 8 | -4 | -3 | -5 | 
CC(C)(C)c1nc(-c2cccc(NS(=O)(=O)c3c(F)cccc3F)c2F)c(-c2ccnc(N)n2)s1 [dabrafenib] | -5 | 7.51 | 18 | 37 |  |  | 57 |  | 9 | 1.14 | 17 | 
Cc1nc(Nc2ncc(C(=O)Nc3c(C)cccc3Cl)s2)cc(N2CCN(CCO)CC2)n1 [dasatinib] |  |  |  | 69 | 91 |  |  |  | -1.78 |  | 0.469 | 
C#Cc1cccc(Nc2ncnc3cc(OCCOC)c(OCCOC)cc23)c1 [erlotinib] |  |  |  |  |  |  |  |  |  |  |  | %-inhibition of PIM3 ([9]; 1 µM): 0.333%; %-inhibition of WNK1 ([10]; 1 µM): 1.82%; %-inhibition of CLK3 ([11]; 1 µM): -0.469%; %-inhibition of INSR ([2]; 1 µM): 4%; %-inhibition of SYK ([4]; 1 µM): 17%; %-inhibition of p38α ([5]; 1 µM): -0.474%; %-inhibition, AMPKα1/β1/γ1 ([6]; 1 µM): 2%; %-inhibition of HCK ([7]; 1 µM): 26%; %-inhibition of IRAK4 ([8]; 1 µM): 3%
CS(=O)(=O)CCNCc1ccc(-c2ccc3ncnc(Nc4ccc(OCc5cccc(F)c5)c(Cl)c4)c3c2)o1 [lapatinib] |  | -1.26 |  | 0 | -3 | -5 |  | -2 | -3.44 | -0.825 | 0.469 | %-inhibition of TXK ([3]; 1 µM): 0.699%; %-inhibition of HCK ([7]; 1 µM): -0.366%
Cc1cn(-c2cc(NC(=O)c3ccc(C)c(Nc4nccc(-c5cccnc5)n4)c3)cc(C(F)(F)F)c2)cn1 [nilotinib] |  | -8 | 16 | 54 |  |  |  | -29 |  | -0.88 | -10 | %-inhibition of PIM3 ([9]; 1 µM): 13%; %-inhibition of p38α ([5]; 1 µM): 92%; %-inhibition, AMPKα1/β1/γ1 ([6]; 1 µM): -12%; %-inhibition of HCK ([7]; 1 µM): 73%
Cc1ccc(Nc2nccc(N(C)c3ccc4c(C)n(C)nc4c3)n2)cc1S(N)(=O)=O [pazopanib] |  | 22 | 52 | 40 | 10 | -0.748 | 67 | -0.622 | -4 | -3.67 | 0.791 | 
Cc1ccc(C(=O)Nc2ccc(CN3CCN(C)CC3)c(C(F)(F)F)c2)cc1C#Cc1cnc2cccnn12 [ponatinib] | -1.79 | 43 | 98 | 10 | 101 | 46 | 98 | 29 |  |  |  | 
CCN(CC)CCNC(=O)c1c(C)[nH]c(/C=C2\C(=O)Nc3ccc(F)cc32)c1C [sunitinib] |  |  |  |  |  |  |  | 48 | 21 |  |  | 
COc1cc2c(Nc3ccc(Br)cc3F)ncnc2cc1OCC1CCN(C)CC1 [vandetanib] | -0.358 | 3.63 | 60 | 27 | 18 | 9 |  |  | -6 | -2.36 | -15 | 

Source: PMC3961306, “Comparison of the Cancer Gene Targeting and Biochemical Selectivities of All Targeted Kinase Inhibitors Approved for Clinical Use” (PLoS ONE, 2014)
